Assay results: PMC12565843, “Phenolic Compounds from Hypericum cerastoides (Spach) N. Robson: Dereplication via UHPLC-HRMS/MS, Isolation, Identification, and Preliminary Biological Evaluation Focusing on Radical-Scavenging, Anti-α-Glucosidase, and Pro-Lipase Activities” (Metabolites, 2025)
Values joined by “and” are separate entries in the source; they are usually repeats but may differ in a detail not shown here. Equal values may be shown once.

Tests used:
[1] = DPPH radical-scavenging activity assay; conditions: compounds and controls at 100 µM in EtOH, 30 min, 517 nm; mean ± SD
Protocol: The scavenging activity of phenolic compounds against DPPH radicals was assessed using Kokanova-Nedialkova and Nedialkov methods, with some modifications. Briefly, 300 µL of each compound in EtOH (100 µM) was mixed with 300 µL of DPPH ethanol solution (100 µM). The reaction mixture was thoroughly vortexed and left in the dark at room temperature for 30 min. The absorbance of the mixture was measured at 517 nm. The following equation calculates the ability to scavenge DPPH radicals: %DPPH radical scavenging activity=Abscontrol−Abssample/Abscontrol×100, where Abscontrol is the absorbance of the DPPH radical in EtOH, and Abssample is the absorbance of the DPPH radical solution mixed with a sample.
Positive controls were vitamin C (100 µM) and Trolox (100 µM).

[2] = ABTS radical-scavenging activity assay; conditions: compounds and controls at 100 µM in EtOH, 7 min, 734 nm, mean ± SD
Protocol: For ABTS assay, the procedure followed the method of Kokanova-Nedialkova and Nedialkov with some modifications. The stock solutions included 7 mM ABTS and 2.4 mM potassium persulfate. The working solution was then prepared by mixing the two stock solutions in equal quantities and allowing them to react for 12–14 h at room temperature in the dark. The solution was then diluted by mixing 1 mL of the ABTS solution with 30 mL of ethanol. A fresh ABTS solution was prepared for each assay. Furthermore, 300 µL of each compound in EtOH (100 µM) was allowed to react with 1 mL of the ABTS solution, and the absorbance was taken at 734 nm after 7 min using a spectrophotometer. The ABTS scavenging capacity of the compound was calculated as: %ABTS radical scavenging activity=Abscontrol−Abssample/Abscontrol×100 where Abscontrol is the absorbance of the ABTS radical in ethanol, and Abssample is the absorbance of an ABTS radical solution mixed with a sample.
Vitamin C (100 µM) and Trolox (100 µM) were used as positive controls.

α-glucosidase = experiment: Anti-α-glucosidase activity assay (LC-MS, p-nitrophenyl-α-D-glucopyranoside substrate); assay type: biochemical; conditions: five concentrations 1000-62.5 µM, NA = the compound is not active; for IC50: read-out: α-Glucosidase Inhibitory Activity (IC50 ± SD)
Protocol: The α-Glucosidase inhibitory activity was determined by LC-MS using p-nitrophenyl-α-D-glucopyranoside as the substrate, as described by Kokanova-Nedialkova et al.. The assay mixture (160 µL) was prepared accordingly to Kang et al. with some modifications. An aliquot of 20 µL of a sample in phosphate buffer (pH 6.8) containing 10% DMSO (or phosphate buffer containing 10% DMSO as a control), 100 µL phosphate buffer (pH 6.8), and 20 µL enzyme solution (0.2 U/mL α-glucosidase in phosphate buffer) were mixed and incubated at 37 °C for 15 min. Then, 20 µL of substrate solution (2.5 mM p-nitrophenyl-α-D-glucopyranoside, prepared in the same buffer) was added. The reaction was processed at 37 °C for 15 min and stopped by adding 840 µL acetonitrile (AcCN). The supernatant was then used for LC-MS analysis after centrifugation at 12,000 rpm for 10 min. The amount of p-nitrophenol released from p-nitrophenyl-α-D-glucopyranoside was quantified using liquid chromatography-[…] (LC-MS). The inhibitory rates (%) were calculated according to the formula: % α−Glucosidase inhibitory activity=Aк−Asample/Aк×100, where Aк is the area of the p-nitrophenol peak in the control, and Asample is the area of the p-nitrophenol peak in the sample.

[3] = target: T1, lipase from porcine pancreas, Type II (Sus scrofa, UniProt P00591); experiment: Assay for modulation of lipase activity (LC-MS, p-nitrophenyl laurate substrate); assay type: biochemical; conditions: for Effect on lipase activity (in words): tested at 200-12.5 µM; for Fold increase of lipase activity compared to the control: 200 µM
T1 construct: lipase from porcine pancreas, Type II; purchased Sigma-Aldrich L3126; host or cells: porcine pancreas (tissue-derived)
T1 sequence (P00591 1-450): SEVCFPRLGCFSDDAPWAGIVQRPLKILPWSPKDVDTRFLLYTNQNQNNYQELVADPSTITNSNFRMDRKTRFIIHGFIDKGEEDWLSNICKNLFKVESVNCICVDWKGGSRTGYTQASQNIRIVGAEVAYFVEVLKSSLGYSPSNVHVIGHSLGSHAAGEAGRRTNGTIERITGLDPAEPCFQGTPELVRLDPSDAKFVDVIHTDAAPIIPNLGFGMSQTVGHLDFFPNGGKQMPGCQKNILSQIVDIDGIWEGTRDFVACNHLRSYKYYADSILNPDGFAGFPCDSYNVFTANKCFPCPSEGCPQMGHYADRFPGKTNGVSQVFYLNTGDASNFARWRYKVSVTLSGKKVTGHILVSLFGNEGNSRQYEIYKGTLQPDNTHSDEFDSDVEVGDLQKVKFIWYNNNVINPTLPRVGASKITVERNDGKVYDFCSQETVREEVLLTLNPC
Protocol: This assay was adapted from previous reports for the determination of anti-lipase and pro-lipase activity by LC-MS [14]. Briefly, lipase from porcine pancreas, Type II (Sigma-Aldrich, St. Louis, MA, USA, product L3126), was dissolved in ultra-pure water at a 5 mg/mL concentration. The supernatant was then used after centrifugation at 15,000 rpm for 10 min. The assay buffer was 100 mM Tris buffer (pH 8.2), and p-nitrophenyl laurate was used as the substrate. The substrate stock was 2 mg p-nitrophenyl laurate dissolved in 1 mL isopropanol and 4 mL 5 mM sodium acetate (pH 5.0) containing 1% Triton X-100 (Fisher Scientific, Bridgewater, NJ, USA). The mixture was heated to facilitate dissolution, thoroughly mixed, and then cooled to room temperature. The assay mixture (1 mL) contained 20 µL of a sample in DMSO (or DMSO as a control), 860 µL of Tris buffer (pH 8.2), and 30 µL of enzyme solution. The mixture was combined, shaken, and incubated at 37 °C for 15 min. Then, 90 µL of substrate solution was added and shaken again. The reaction was processed at 37 °C for 2 h and stopped by adding 800 µL CH3CN to 200 µL of the assay mixture. The supernatant was then used for LC-MS analysis after centrifugation at 15,000 rpm for 10 min. The amount of p-nitrophenol released from p-nitrophenyl laurate was quantified using LC-MS. Lipase inhibitory activity (%) was calculated according to the formula: % Lipase inhibitory activity=Aк−Asample/Aк×100, where Aк is the area of the p-nitrophenol peak in the control, and Asample is the area of the p-nitrophenol peak in the sample.
Pro-lipase activity (%) was calculated according to the formula: % Prolipase activity=Asample−Ak/Aк×100, where Aк is the area of the p-nitrophenol peak in the control, and Asample is the area of the p-nitrophenol peak in the sample.

IC50 (α-glucosidase) [µM] | Effect on lipase activity (in words) [3] | Fold increase of lipase activity compared to the control [3] | SMILES | DPPH % (radical-scavenging activity) [1] | ABTS % (radical-scavenging activity) [2] | ABTS % (radical-scavenging activity) ([2]; listed as Vitamin C) [%] | α-Glucosidase Inhibitory Activity (IC50 ± SD) (α-glucosidase)
 | do not inhibit lipase activity |  | COC(=O)C1(O)CC(O)C(O)C(OC(=O)C=Cc2ccc(O)c(O)c2)C1 (centres unmarked) [HC5, methyl ester of chlorogenic acid] | 84.57% and 84.57 ± 0.27% | 71.27% and 71.27 ± 0.08% |  | did not exhibit measurable inhibitory activity
206 ± 13 | do not inhibit lipase activity | fivefold | O=c1c(OC2OC(CO)C(O)C(O)C2O)c(-c2cc(O)c(O)c(O)c2)oc2cc(O)cc(O)c12 (centres unmarked) [HC3, myricetin-3-O-galactoside] | 82.70% and 82.70 ± 0.34% | 96.04% and 96.04 ± 0.37% |  | 
 | do not inhibit lipase activity | fivefold | O=c1c(OC2OC(CO)C(O)C(O)C2O)c(-c2cc(O)c(O)c(O)c2)oc2cc(O)cc(O)c12 (centres unmarked) [HC2, myricetin-3-O-glucoside] | 84.32% and 84.32 ± 0.23% | 97.23% and 97.23 ± 0.45% |  | did not exhibit measurable inhibitory activity

More lines, now with the values behind:

SMILES | IC50 (α-glucosidase) [µM] | Effect on lipase activity (in words) [3] | Fold increase of lipase activity compared to the control [3] | DPPH % (radical-scavenging activity) [1] | ABTS % (radical-scavenging activity) [2] | ABTS % (radical-scavenging activity) ([2]; listed as Vitamin C) [%] | α-Glucosidase Inhibitory Activity (IC50 ± SD) (α-glucosidase)
O=C1O[C@H]([C@@H](O)CO)C(O)=C1O [Vit C, reference compound] |  |  |  | 59.44 ± 0.42% | 66.21 ± 0.45% | 66.21 | 
CC(C)C1CC(OC2OC(COC(=O)C=Cc3ccc(O)cc3)C(O)C(O)C2O)CC(=O)O1 [HC6, 4-O-{6-[(2E)-p-Hydroxycinnamoyl]-β-D-Glucopyranosyl}-6-isopropyl-tetrahydro-2H-pyran-2-one] | 371 ± 9 | do not inhibit lipase activity |  | 15.93% and 15.93 ± 0.33% | 25.50% and 25.50 ± 0.12% |  | 
Cc1c(C)c2c(c(C)c1O)CCC(C)(C(=O)O)O2 (centres unmarked) [Trolox, reference compound] |  |  |  | 88.33 ± 0.33% | 94.16% and 94.16 ± 0.32% |  | 
O=C(C=Cc1ccc(O)cc1)OC1CC(O)(C(=O)O)CC(O)C1O (centres unmarked) [HC1, coumaroylquinic acid] | 44 ± 5 | do not inhibit lipase activity |  | 18.95% and 18.95 ± 0.36% | 22.12% and 22.12 ± 0.63% |  | 
COC(=O)CC(CC(O)C(C)C)O[C@@H]1O[C@H](COC(=O)/C=C/c2ccc(O)cc2)[C@@H](O)[C@H](O)[C@H]1O (stereo partly drawn) [HC7, Methyl 3-O-{6-[(2E)-p-hydroxycinnamoyl]-β-glucopyranosyl}-6-methyl-5-hydroxyheptanoate] |  | did not show any significant effect on lipase activity |  | 11.48% and 11.48 ± 0.21% | 26.88% and 26.88 ± 0.33% |  | did not exhibit measurable inhibitory activity
CC(=O)OC1C(Oc2cc(O)cc(O)c2C(=O)c2ccccc2)OC(CO)C(O)C1O [HC4, 4,6-Dihydroxy Benzophenone-2-O-β-D-2″-Acetylglucopyranoside] |  | did not show any significant effect on lipase activity |  | 14.63% and 14.63 ± 0.50% | 70.20% and 70.20 ± 0.23% |  | did not exhibit measurable inhibitory activity
